Assay results as given in PMC7269503 (Antimicrobial Agents and Chemotherapy, 2020).
Converted amounts (≈) assume the structure as drawn. “And” between values parts separate entries of the source, which are not always exact repeats. Equal entries are not always repeated. Where two headings read alike, the source gives them in different places.

What was measured:
M. africanum ATCC 25420 = assay: MIC by agar proportion method, standard strain; type: cell-based; conditions: ATCC25420; M. africanum ATCC 25420; agar proportion method; read-out: MIC
[1] = tested on: M. tuberculosis ATCC 35822 (H37Rv INH-R); assay: MIC by agar proportion method, standard strain; type: cell-based; conditions: Mycobacterium tuberculosis; […]; agar proportion method; read-out: MIC
[2] = tested on: intracellular M. tuberculosis H37Rv; assay: microbe, parasite or virus in culture; type: cell-based
M. tuberculosis Kurono [3] = type: in vivo; conditions: oral 5 days per week, 4 weeks; OPC-167832 0.625, DMD 0.625, BDQ 5, LVX 300, LZD 100 mg/kg
[4] = tested on: M. tuberculosis ATCC 35820 (H37Rv SM-R); assay: MIC by agar proportion method, standard strain; type: cell-based; conditions: Mycobacterium tuberculosis; […]; agar proportion method; read-out: MIC
[5] = tested on: M. tuberculosis ATCC 35828 (H37Rv PZA-R); assay: MIC by agar proportion method, standard strain; type: cell-based; conditions: Mycobacterium tuberculosis; […]; agar proportion method; read-out: MIC
[6] = tested on: growing M. tuberculosis H37Rv; type: cell-based
[7] = tested on: 27 strains of M. tuberculosis; assay: Checkerboard agar dilution assay; type: cell-based; conditions: combined with DMD, MXF, LVX, BDQ, or LZD
Description: FIG 4 In vitro combination effects of OPC-167832 and other anti-TB agents (checkerboard assay). The in vitro combination effects of OPC-167832 and existing anti-TB agents against 27 strains of M. tuberculosis were examined by the checkerboard agar dilution method. CI, confidence interval.
The checkerboard procedure was performed using the MICs of tested agents against the bacterial strains established by an agar dilution method reported previously ([36]). The level of synergy was determined by calculating the FIC index based on the following formulas: ΣFIC = FIC of compound A + FIC of compound B; FIC of compound A = MIC of compound A in combination ÷ MIC of compound A alone; FIC of compound B = MIC of compound B in combination ÷ MIC of compound B alone. The average ΣFIC value was interpreted using the European Committee on Antimicrobial Susceptibility Testing criteria ([37]) with the following values: ≤0.5, synergy; >0.5 to 1, additive effect; >1 to 2, indifference; >2, antagonism). The averages of the ΣFIC values and the 95% confidence intervals for the tested bacterial strains were calculated.

in vivo = conditions: ICR, mouse
[8] = lung
M. bovis ATCC BAA-935 = assay: microbe, parasite or virus in culture; type: cell-based; conditions: Mycobacterium tuberculosis variant bovis, ATCCBAA935
M. tuberculosis Kurono [9] = assay: Monotherapy in a mouse model of chronic TB; type: in vivo
[10] = tested on: M. tuberculosis ATCC 35837 (H37Rv EMB-R); assay: MIC by agar proportion method, standard strain; type: cell-based; conditions: Mycobacterium tuberculosis; […]; agar proportion method; read-out: MIC
[11] = tested on: M. tuberculosis ATCC 35812 (Kurono); assay: MIC by agar proportion method, standard strain; type: cell-based; conditions: Mycobacterium tuberculosis, ATCC35812; ATCC 35812 (Kurono); agar proportion method; read-out: MIC
M. microti ATCC 11152 = assay: MIC by agar proportion method, standard strain; type: cell-based; conditions: ATCC11152; M. microti ATCC 11152; agar proportion method; read-out: MIC
[12] = tested on: M. pinnipedii ATCC BAA-688; assay: MIC by agar proportion method, standard strain; type: cell-based; conditions: ATCCBAA688; M. pinnipedii ATCC BAA-688; agar proportion method; read-out: MIC
M. caprae ATCC BAA-824 = assay: MIC by agar proportion method, standard strain; type: cell-based; conditions: ATCCBAA824; M. caprae ATCC BAA-824; agar proportion method; read-out: MIC
[13] = tested on: M. tuberculosis ATCC 35838 (H37Rv RIF-R); assay: MIC by agar proportion method, standard strain; type: cell-based; conditions: Mycobacterium tuberculosis; […]; agar proportion method; read-out: MIC
[14] = tested on: M. tuberculosis ATCC 27294 (H37Rv); assay: MIC by agar proportion method, standard strain; type: cell-based; conditions: Mycobacterium tuberculosis; ATCC 27294 (H37Rv); agar proportion method; […]; read-out: MIC
[15] = tested on: clinically isolated M. tuberculosis strains; type: cell-based; conditions: summary in abstract
[16] = tested on: intracellular M. tuberculosis Kurono; assay: microbe, parasite or virus in culture; type: cell-based
[17] = tested on: standard strains of nonmycobacterial aerobic and anaerobic bacteria; assay: Activity against nonmycobacterial bacteria; type: cell-based; conditions: data not shown
[18] = lungs of mice; cited from earlier work
M. tuberculosis = conditions: cited from earlier work

**Q.** For `O=C1CCc2c(OC[C@]3(O)CCN(c4c(F)cc(Cl)cc4F)C[C@H]3O)ccc(F)c2N1` [OPC-167832], which MIC (M. africanum ATCC 25420) is on record?
**A.** 2 ng/mL (≈ 4.38 nM)

**Q.** What about the MIC [1] of the same molecule?
**A.** 0.24 ng/mL (≈ 0.525 nM)

**Q.** What about the “concentration at which intracellular bactericidal activity was saturated” value [2] of the same molecule?
**A.** ≥ 0.004 µg/mL

**Q.** What about the “bactericidal activity against intracellular bacilli” value ([2]; H37Rv in THP-1-derived macrophage-like cells, 3 days) of the same molecule?
**A.** killed the intracellular bacilli

**Q.** What about the IC90 ([2]; Mycobacterium tuberculosis, H37RV, THP-1, read-out: 90% inhibitory concentration (IC90)) of the same molecule?
**A.** 4.8 ng/mL (≈ 10.5 nM)

**Q.** What about the “lung CFU compared to the vehicle group, single agent” value (M. tuberculosis Kurono [3]) of the same molecule?
**A.** significant decrease of lung CFU

**Q.** What about the MIC [4] of the same molecule?
**A.** 1 ng/mL (≈ 2.19 nM)

**Q.** And the MIC [5]?
**A.** 1 ng/mL (≈ 2.19 nM)

**Q.** And the “concentration at which killing activity was achieved” value [6]?
**A.** 0.0005 µg/mL

**Q.** What about the “interactive effect (mean FIC index)” value [7] of the same molecule?
**A.** indifferent effect

**Q.** And the Kp (in vivo)?
**A.** 1.67 to 1.96

**Q.** And the Kp (in vivo; female, po)?
**A.** ~2

**Q.** What about the Tmax (in vivo; female, po) of the same molecule?
**A.** 0.5 to 1 h

**Q.** What about the AUC(0-t) (in vivo; female, po, 0.625 mg/kg) of the same molecule?
**A.** 283 ng·h/mL

**Q.** What about the Cmax (in vivo; female, po, 0.625 mg/kg) of the same molecule?
**A.** 162 ng/g

**Q.** And the Tmax (in vivo; female, po, 0.625 mg/kg)?
**A.** 1 h

**Q.** And the half-life (in vivo; female, po, 0.625 mg/kg, t1/2, lung, 0.625 mg/kg oral, calculated 2 - 8h)?
**A.** 84 min

**Q.** What about the half-life (in vivo; female, po, 0.625 mg/kg, t1/2, plasma, 0.625 mg/kg oral, calculated 2 - 8h) of the same molecule?
**A.** 96 min

**Q.** What about the AUC(0-t) (in vivo; female, po, 1.25 mg/kg) of the same molecule?
**A.** 543 ng·h/mL

**Q.** And the Cmax (in vivo; female, po, 1.25 mg/kg)?
**A.** 303 ng/g and 200 ng/mL

**Q.** What about the Tmax (in vivo; female, po, 1.25 mg/kg) of the same molecule?
**A.** 1 h

**Q.** And the half-life (in vivo; female, po, 1.25 mg/kg, t1/2, lung, 1.25 mg/kg oral, calculated 4 - 8h)?
**A.** 120 min

**Q.** What about the half-life (in vivo; female, po, 1.25 mg/kg, t1/2, plasma, 1.25 mg/kg oral, calculated 2 - 12h) of the same molecule?
**A.** 90 min

**Q.** And the AUC(0-t) (in vivo; female, po, 2.5 mg/kg)?
**A.** 1140 ng·h/mL

**Q.** What about the Cmax (in vivo; female, po, 2.5 mg/kg) of the same molecule?
**A.** 314 ng/mL and 651 ng/g

**Q.** What about the Tmax (in vivo; female, po, 2.5 mg/kg) of the same molecule?
**A.** 0.5 h

**Q.** What about the half-life (in vivo; female, po, 2.5 mg/kg, t1/2, lung, 2.5 mg/kg oral, calculated 2 - 8h) of the same molecule?
**A.** 78 min

**Q.** And the half-life (in vivo; female, po, 2.5 mg/kg, t1/2, plasma, 2.5 mg/kg oral, calculated 6 - 12h)?
**A.** 78 min

**Q.** And the AUC(0-t) (in vivo; female, po, 5 mg/kg)?
**A.** 2650 ng·h/mL

**Q.** And the Cmax (in vivo; female, po, 5 mg/kg)?
**A.** 758 ng/mL and 1360 ng/g

**Q.** What about the Tmax (in vivo; female, po, 5 mg/kg) of the same molecule?
**A.** 1 h

**Q.** What about the half-life (in vivo; female, po, 5 mg/kg, t1/2, lung, 5 mg/kg oral, calculated 2 - 12h) of the same molecule?
**A.** 126 min

**Q.** And the half-life (in vivo; female, po, 5 mg/kg, t1/2, plasma, 5 mg/kg oral, calculated 2 - 12h)?
**A.** 126 min

**Q.** What about the AUC(0-t) (in vivo; female, po, 10 mg/kg) of the same molecule?
**A.** 3780 ng·h/mL

**Q.** What about the Cmax (in vivo; female, po, 10 mg/kg) of the same molecule?
**A.** 1090 ng/mL and 2220 ng/g

**Q.** What about the Tmax (in vivo; female, po, 10 mg/kg) of the same molecule?
**A.** 1 h

**Q.** And the half-life (in vivo; female, po, 10 mg/kg, t1/2, lung, 10 mg/kg oral, calculated 6 - 12h)?
**A.** 126 min

**Q.** What about the half-life (in vivo; female, po, 10 mg/kg, t1/2, plasma, 10 mg/kg oral, calculated 2 - 12h) of the same molecule?
**A.** 96 min

**Q.** What about the half-life (in vivo; female, po, half-life (t1/2), plasma, oral doses 0.625 to 10 mg/kg) of the same molecule?
**A.** 78 to 126 min

**Q.** What about the AUCt ([8]; 0.625 mg/kg oral, t: 8h) of the same molecule?
**A.** 505 ng·h/g

**Q.** What about the AUCt ([8]; 1.25 mg/kg oral, t: 8h) of the same molecule?
**A.** 909 ng·h/g

**Q.** What about the AUCt ([8]; 2.5 mg/kg oral, t: 8h) of the same molecule?
**A.** 2133 ng·h/g

**Q.** And the AUCt ([8]; 5 mg/kg oral, t: 12h)?
**A.** 4742 ng·h/g

**Q.** What about the AUCt ([8]; 10 mg/kg oral, t: 12h) of the same molecule?
**A.** 7410 ng·h/g

**Q.** And the MIC (M. bovis ATCC BAA-935)?
**A.** 2 ng/mL (≈ 4.38 nM)

**Q.** And the “lung CFU compared to the vehicle group” value (M. tuberculosis Kurono [9]; 0.625, 1.25, 2.5, 5 and 10 mg/kg oral daily, 4 weeks, ICR female mice)?
**A.** significantly reduced lung CFU

**Q.** What about the minimum effective dose (M. tuberculosis Kurono [9]; mouse model of chronic TB, oral) of the same molecule?
**A.** 0.625 mg/kg

**Q.** And the MIC [10]?
**A.** 2 ng/mL (≈ 4.38 nM)

**Q.** And the MIC [11]?
**A.** 0.5 ng/mL (≈ 1.09 nM)

**Q.** What about the MIC (M. microti ATCC 11152) of the same molecule?
**A.** 1 ng/mL (≈ 2.19 nM)

**Q.** What about the MIC [12] of the same molecule?
**A.** 0.5 ng/mL (≈ 1.09 nM)

**Q.** And the MIC (M. caprae ATCC BAA-824)?
**A.** 1 ng/mL (≈ 2.19 nM)

**Q.** What about the MIC [13] of the same molecule?
**A.** 0.5 ng/mL (≈ 1.09 nM)

**Q.** And the MIC [14]?
**A.** 0.5 ng/mL (≈ 1.09 nM)

**Q.** What about the “MICs for Mycobacterium tuberculosis (overall range)” value [15] of the same molecule?
**A.** 0.00024 to 0.002 µg/mL

**Q.** What about the “bactericidal activity against intracellular bacilli” value ([16]; Kurono in THP-1-derived macrophage-like cells, 3 days) of the same molecule?
**A.** killed the intracellular bacilli

**Q.** And the IC90 ([16]; Mycobacterium tuberculosis, THP-1, read-out: 90% inhibitory concentration (IC90))?
**A.** 2.7 ng/mL (≈ 5.91 nM)

**Q.** And the “activity against nonmycobacterial aerobic and anaerobic bacteria” value [17]?
**A.** minimal or no activity

**Q.** With `O=c1nc(N2CCN(CC3CCCCC3)CC2)sc2c([N+](=O)[O-])cc(C(F)(F)F)cc12` [PBTZ169] as the molecule, how does the “Kp (tissue to plasma partition coefficient), lungs” value [18] read?
**A.** 0.415

**Q.** With `CCOC(=O)NC(=O)c1ccsc1NC(=O)c1nc2ccccc2s1` [TCA1] as the molecule, how does the MIC (M. tuberculosis) read?
**A.** 0.19 µg/mL (≈ 506 nM)
